Results taken from paper PMC6409085, “Three odorant-binding proteins are involved in the behavioral response of Sogatella furcifera to rice plant volatiles” (PeerJ, 2019).
Where “and” joins values, the source holds several entries; their conditions need not be identical. Equal entries are not always repeated.

Tests used:
S. furcifera adults = experiment: Y-tube olfactometer behavioral trials; format: in vivo, Sogatella furcifera; conditions: odorant 50 µL/L vs hexane; adults
Outline: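 Single S. furcifera adults (2 days post-emergence, starved 0.5 h) chose between odorant (100 µL of 50 µL/L on filter paper) and hexane control in a glass Y-tube, charcoal-filtered humidified air 300 mL/min per arm, 25 ± 1 °C, 50% RH. Choice scored if insect passed half an arm and stayed >1 min within 10 min; 45 insects per compound, chi-squared test.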

SfurOBP3 = SfurOBP3 (Sogatella furcifera, UniProt V5T818); experiment: biochemical; format: binding; conditions: for Fluorescence competitive binding assay, fluorescence intensity: OBP3, three replicate columns
Outline: (§1)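 K1-NPN came from titrating 2.0 µM protein (50 mM Tris-HCl, pH 7.4) with 1-NPN. Odorants at 2-20 µM then competed against 2.0 µM protein plus 2.0 µM 1-NPN for 2 min, with excitation at 337 nm and emission recorded over 390-490 nm. IC50 values were converted to Ki via Ki = IC50/(1 + [1-NPN]/K1-NPN).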

SfurOBP11 = SfurOBP11 (Sogatella furcifera, UniProt V5T6E3); experiment: biochemical; format: binding
Outline: as §1

SfurOBP1 = SfurOBP1 (Sogatella furcifera, UniProt V5T8N5); experiment: biochemical; format: binding; conditions: for Fluorescence competitive binding assay, fluorescence intensity: OBP1, three replicate columns
Outline: as §1

SfurOBP2 = SfurOBP2 (Sogatella furcifera, UniProt V5T759); experiment: biochemical; format: binding
Outline: as §1

Chain of SfurOBP1 (V5T8N5 entry or part of it): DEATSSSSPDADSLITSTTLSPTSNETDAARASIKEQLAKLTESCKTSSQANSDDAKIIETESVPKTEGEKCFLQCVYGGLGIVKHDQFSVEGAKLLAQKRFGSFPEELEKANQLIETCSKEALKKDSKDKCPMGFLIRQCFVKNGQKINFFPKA
Chain of SfurOBP2 (V5T759 entry or part of it): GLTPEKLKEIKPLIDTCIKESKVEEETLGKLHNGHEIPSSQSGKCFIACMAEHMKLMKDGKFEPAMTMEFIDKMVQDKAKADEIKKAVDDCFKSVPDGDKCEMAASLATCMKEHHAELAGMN
Chain of SfurOBP3 (V5T818 entry or part of it): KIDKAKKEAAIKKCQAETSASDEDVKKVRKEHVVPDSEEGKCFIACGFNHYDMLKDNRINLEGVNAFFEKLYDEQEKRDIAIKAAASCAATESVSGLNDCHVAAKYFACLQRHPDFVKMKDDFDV
Chain of SfurOBP11 (V5T6E3 entry or part of it): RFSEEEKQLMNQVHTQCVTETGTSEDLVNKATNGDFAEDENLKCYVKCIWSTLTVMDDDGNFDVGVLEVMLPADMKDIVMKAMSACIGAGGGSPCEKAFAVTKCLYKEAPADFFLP

## C=C1CC/C=C(\C)CC[C@@H]2[C@@H]1CC2(C)C [β-caryophyllene]
S. furcifera adults
  number of insects choosing hexane arm: 15
  number of insects choosing volatilies arm: 16
  number of insects failed (no choice): 9
SfurOBP3
  IC50: > 20 µM
SfurOBP3; ligand concentration 2
  Fluorescence competitive binding assay, fluorescence intensity: 59910 and 62614 and 72673
SfurOBP3; ligand concentration 4
  Fluorescence competitive binding assay, fluorescence intensity: 64089 and 65130 and 67441
SfurOBP3; ligand concentration 6
  Fluorescence competitive binding assay, fluorescence intensity: 62365 and 65722 and 64412
SfurOBP3; ligand concentration 8
  Fluorescence competitive binding assay, fluorescence intensity: 61822 and 63261 and 63413
SfurOBP3; ligand concentration 10
  Fluorescence competitive binding assay, fluorescence intensity: 59908 and 63429 and 67892
SfurOBP3; ligand concentration 12
  Fluorescence competitive binding assay, fluorescence intensity: 56993 and 56771 and 64941
SfurOBP3; ligand concentration 14
  Fluorescence competitive binding assay, fluorescence intensity: 61557 and 60060 and 62301
SfurOBP3; ligand concentration 16
  Fluorescence competitive binding assay, fluorescence intensity: 39308 and 53990 and 51354
SfurOBP3; ligand concentration 18
  Fluorescence competitive binding assay, fluorescence intensity: 76113 and 82456 and 70640
SfurOBP3; ligand concentration 20
  Fluorescence competitive binding assay, fluorescence intensity: 72444 and 66812 and 61866
SfurOBP11
  IC50: > 20 µM
SfurOBP11; ligand concentration 2, replicate 1
  Fluorescence intensity, fluorescence competitive binding assay, OBP11: 23970
SfurOBP11; ligand concentration 2, replicate 2
  Fluorescence intensity, fluorescence competitive binding assay, OBP11: 23335
SfurOBP11; ligand concentration 2, replicate 3
  Fluorescence intensity, fluorescence competitive binding assay, OBP11: 21938
SfurOBP11; ligand concentration 4, replicate 1
  Fluorescence intensity, fluorescence competitive binding assay, OBP11: 23122
SfurOBP11; ligand concentration 4, replicate 2
  Fluorescence intensity, fluorescence competitive binding assay, OBP11: 24566
SfurOBP11; ligand concentration 4, replicate 3
  Fluorescence intensity, fluorescence competitive binding assay, OBP11: 25482
SfurOBP11; ligand concentration 6, replicate 1
  Fluorescence intensity, fluorescence competitive binding assay, OBP11: 23526
SfurOBP11; ligand concentration 6, replicate 2
  Fluorescence intensity, fluorescence competitive binding assay, OBP11: 25770
SfurOBP11; ligand concentration 6, replicate 3
  Fluorescence intensity, fluorescence competitive binding assay, OBP11: 26267
SfurOBP11; ligand concentration 8, replicate 1
  Fluorescence intensity, fluorescence competitive binding assay, OBP11: 21931
SfurOBP11; ligand concentration 8, replicate 2
  Fluorescence intensity, fluorescence competitive binding assay, OBP11: 24474
SfurOBP11; ligand concentration 8, replicate 3
  Fluorescence intensity, fluorescence competitive binding assay, OBP11: 27203
SfurOBP11; ligand concentration 10, replicate 1
  Fluorescence intensity, fluorescence competitive binding assay, OBP11: 23853
SfurOBP11; ligand concentration 10, replicate 2
  Fluorescence intensity, fluorescence competitive binding assay, OBP11: 25460
SfurOBP11; ligand concentration 10, replicate 3
  Fluorescence intensity, fluorescence competitive binding assay, OBP11: 25443
SfurOBP11; ligand concentration 12, replicate 1
  Fluorescence intensity, fluorescence competitive binding assay, OBP11: 23639
SfurOBP11; ligand concentration 12, replicate 2
  Fluorescence intensity, fluorescence competitive binding assay, OBP11: 23490
SfurOBP11; ligand concentration 12, replicate 3
  Fluorescence intensity, fluorescence competitive binding assay, OBP11: 23358
SfurOBP11; ligand concentration 14, replicate 1
  Fluorescence intensity, fluorescence competitive binding assay, OBP11: 23808
SfurOBP11; ligand concentration 14, replicate 2
  Fluorescence intensity, fluorescence competitive binding assay, OBP11: 26534
SfurOBP11; ligand concentration 14, replicate 3
  Fluorescence intensity, fluorescence competitive binding assay, OBP11: 25924
SfurOBP11; ligand concentration 16, replicate 1
  Fluorescence intensity, fluorescence competitive binding assay, OBP11: 22662
SfurOBP11; ligand concentration 16, replicate 2
  Fluorescence intensity, fluorescence competitive binding assay, OBP11: 23024
SfurOBP11; ligand concentration 16, replicate 3
  Fluorescence intensity, fluorescence competitive binding assay, OBP11: 23415
SfurOBP11; ligand concentration 18, replicate 1
  Fluorescence intensity, fluorescence competitive binding assay, OBP11: 30250
SfurOBP11; ligand concentration 18, replicate 2
  Fluorescence intensity, fluorescence competitive binding assay, OBP11: 30294
SfurOBP11; ligand concentration 18, replicate 3
  Fluorescence intensity, fluorescence competitive binding assay, OBP11: 30235
SfurOBP11; ligand concentration 20, replicate 1
  Fluorescence intensity, fluorescence competitive binding assay, OBP11: 30296
SfurOBP11; ligand concentration 20, replicate 2
  Fluorescence intensity, fluorescence competitive binding assay, OBP11: 30444
SfurOBP11; ligand concentration 20, replicate 3
  Fluorescence intensity, fluorescence competitive binding assay, OBP11: 30224
SfurOBP1
  IC50: > 20 µM
SfurOBP1; ligand concentration 2 (μM)
  Fluorescence competitive binding assay, fluorescence intensity: 5117 and 5425 and 5286
SfurOBP1; ligand concentration 4 (μM)
  Fluorescence competitive binding assay, fluorescence intensity: 6363 and 5644 and 6004
SfurOBP1; ligand concentration 6 (μM)
  Fluorescence competitive binding assay, fluorescence intensity: 6522 and 6380 and 7207
SfurOBP1; ligand concentration 8 (μM)
  Fluorescence competitive binding assay, fluorescence intensity: 6475 and 7284 and 8411
SfurOBP1; ligand concentration 10 (μM)
  Fluorescence competitive binding assay, fluorescence intensity: 6788 and 8986 and 9051
SfurOBP1; ligand concentration 12 (μM)
  Fluorescence competitive binding assay, fluorescence intensity: 7963 and 9385 and 12364
SfurOBP1; ligand concentration 14 (μM)
  Fluorescence competitive binding assay, fluorescence intensity: 10459 and 9678 and 17343
SfurOBP1; ligand concentration 16 (μM)
  Fluorescence competitive binding assay, fluorescence intensity: 9671 and 11754 and 9907
SfurOBP1; ligand concentration 18 (μM)
  Fluorescence competitive binding assay, fluorescence intensity: 16605 and 15288 and 16195
SfurOBP1; ligand concentration 20 (μM)
  Fluorescence competitive binding assay, fluorescence intensity: 15809 and 13061 and 12977
SfurOBP2
  IC50: 2.93 µM
SfurOBP2; ligand concentration 2 (unit not given), replicate column 1 of 3
  Fluorescence competitive binding assay, OBP2 (raw fluorescence reading): 11458
SfurOBP2; ligand concentration 2 (unit not given), replicate column 2 of 3
  Fluorescence competitive binding assay, OBP2 (raw fluorescence reading): 11327
SfurOBP2; ligand concentration 2 (unit not given), replicate column 3 of 3
  Fluorescence competitive binding assay, OBP2 (raw fluorescence reading): 11281
SfurOBP2; ligand concentration 4 (unit not given), replicate column 1 of 3
  Fluorescence competitive binding assay, OBP2 (raw fluorescence reading): 12040
SfurOBP2; ligand concentration 4 (unit not given), replicate column 2 of 3
  Fluorescence competitive binding assay, OBP2 (raw fluorescence reading): 12315
SfurOBP2; ligand concentration 4 (unit not given), replicate column 3 of 3
  Fluorescence competitive binding assay, OBP2 (raw fluorescence reading): 12582
SfurOBP2; ligand concentration 6 (unit not given), replicate column 1 of 3
  Fluorescence competitive binding assay, OBP2 (raw fluorescence reading): 13825
SfurOBP2; ligand concentration 6 (unit not given), replicate column 2 of 3
  Fluorescence competitive binding assay, OBP2 (raw fluorescence reading): 12794
SfurOBP2; ligand concentration 6 (unit not given), replicate column 3 of 3
  Fluorescence competitive binding assay, OBP2 (raw fluorescence reading): 13738
SfurOBP2; ligand concentration 8 (unit not given), replicate column 1 of 3
  Fluorescence competitive binding assay, OBP2 (raw fluorescence reading): 13150
SfurOBP2; ligand concentration 8 (unit not given), replicate column 2 of 3
  Fluorescence competitive binding assay, OBP2 (raw fluorescence reading): 13647
SfurOBP2; ligand concentration 8 (unit not given), replicate column 3 of 3
  Fluorescence competitive binding assay, OBP2 (raw fluorescence reading): 14723
SfurOBP2; ligand concentration 10 (unit not given), replicate column 1 of 3
  Fluorescence competitive binding assay, OBP2 (raw fluorescence reading): 16274
SfurOBP2; ligand concentration 10 (unit not given), replicate column 2 of 3
  Fluorescence competitive binding assay, OBP2 (raw fluorescence reading): 13413
SfurOBP2; ligand concentration 10 (unit not given), replicate column 3 of 3
  Fluorescence competitive binding assay, OBP2 (raw fluorescence reading): 15514
SfurOBP2; ligand concentration 12 (unit not given), replicate column 1 of 3
  Fluorescence competitive binding assay, OBP2 (raw fluorescence reading): 16497
SfurOBP2; ligand concentration 12 (unit not given), replicate column 2 of 3
  Fluorescence competitive binding assay, OBP2 (raw fluorescence reading): 15342
SfurOBP2; ligand concentration 12 (unit not given), replicate column 3 of 3
  Fluorescence competitive binding assay, OBP2 (raw fluorescence reading): 16204
SfurOBP2; ligand concentration 14 (unit not given), replicate column 1 of 3
  Fluorescence competitive binding assay, OBP2 (raw fluorescence reading): 16950
SfurOBP2; ligand concentration 14 (unit not given), replicate column 2 of 3
  Fluorescence competitive binding assay, OBP2 (raw fluorescence reading): 15785
SfurOBP2; ligand concentration 14 (unit not given), replicate column 3 of 3
  Fluorescence competitive binding assay, OBP2 (raw fluorescence reading): 16267
SfurOBP2; ligand concentration 16 (unit not given), replicate column 1 of 3
  Fluorescence competitive binding assay, OBP2 (raw fluorescence reading): 16569
SfurOBP2; ligand concentration 16 (unit not given), replicate column 2 of 3
  Fluorescence competitive binding assay, OBP2 (raw fluorescence reading): 16590
SfurOBP2; ligand concentration 16 (unit not given), replicate column 3 of 3
  Fluorescence competitive binding assay, OBP2 (raw fluorescence reading): 16267
SfurOBP2; ligand concentration 18 (unit not given), replicate column 1 of 3
  Fluorescence competitive binding assay, OBP2 (raw fluorescence reading): 20111
SfurOBP2; ligand concentration 18 (unit not given), replicate column 2 of 3
  Fluorescence competitive binding assay, OBP2 (raw fluorescence reading): 21295
SfurOBP2; ligand concentration 18 (unit not given), replicate column 3 of 3
  Fluorescence competitive binding assay, OBP2 (raw fluorescence reading): 20566
SfurOBP2; ligand concentration 20 (unit not given), replicate column 1 of 3
  Fluorescence competitive binding assay, OBP2 (raw fluorescence reading): 21451
SfurOBP2; ligand concentration 20 (unit not given), replicate column 2 of 3
  Fluorescence competitive binding assay, OBP2 (raw fluorescence reading): 21222
SfurOBP2; ligand concentration 20 (unit not given), replicate column 3 of 3
  Fluorescence competitive binding assay, OBP2 (raw fluorescence reading): 20042
